# Test results published in US11197862B2, “Methods of preventing toxicity of platinum drugs” (XOMICS BIOPHARMA, INC., priority 2015, dated 2021).
# Values joined by “and” are separate entries in the source; they are usually repeats but may differ in a detail not shown here. Identical values can stand only once. “Also recorded” adds a separate entry of the source.
# Experiments:
# [1] = system: Balb/c mice exposed to chronic treatment with Oxaliplatin; test: Morphometry and histopathology of DRG neurons in chronic oxaliplatin neuropathy model; assay type: in vivo, mouse; settings: for area of DRG neuron cell bodies and nucleoli (morphometry): OXA 3.5 mg/kg iv twice a week for 4 weeks (8 cycles) ± BFMD 30 mg/kg ip + 15 mg/kg iv
# Source text: The investigator was blind to the nerve and DRG conditions for these analyses. Three animals from each group were sacrificed four days after the last oxaliplatin dose. The left sciatic nerves and the L4-L5 DRGs were harvested and processed following previously reported protocols, resin embedded and sectioned for light and electron microscope analysis. For the light microscopy analysis, 1 μm semithin sections were stained with toluidine blue and examined using a Nikon Eclipse E200 light microscope (Nikon, Firenze, Italy). For the electron microscopy analysis, ultrathin sections (80 nm) counterstained with uranyl acetate and lead citrate, were examined with a Philips CM 10 transmission electron microscope (Philips, Eindhoven, Netherlands).
# The investigator was blind to the experimental conditions of the tissue for these experiments. One micron thick semithin sections stained with toluidine blue were used for morphometric examination of the DRGs from control (n=3) and oxaliplatin-treated mice (n=3). (Renn et al. Molecular Pain 2011, 7:29). Only the cells where the nucleolus was included in the section plane of 50 μm-spaced out sections were considered to avoid the overlapping of the same cell bodies and they were analyzed with computer-assisted image analysis (ImageJ, NIH) to measure the soma and nucleolus size of at least 300 DRG neurons per mouse.
# [2] = system: Balb/c mice exposed to chronic treatment with Oxaliplatin; test: Sciatic nerve histology, g-ratio, in chronic oxaliplatin neuropathy model; assay type: in vivo, mouse; settings: OXA 3.5 mg/kg iv, 8 cycles ± BFMD 30 mg/kg ip + 15 mg/kg iv
# Method: After completion of behavioral and electrophysiological analysis, animals were killed and sciatic nerves were dissected, fixed, stained for myelin and cut as semithin sections. Light microscopy was performed to capture an image of the entire nerve which was then subjected to semi-automatic software-based nerve morphometry in order to assess axon diameter and myelin thickness 20.
# To assess changes in nerve cell myelination, we calculated the g ratio of nerve fibers (g-ratio denominates the numerical ratio between the diameter of the axon and the outer diameter of the myelinated fiber; hypomyelination in sciatic nerves, which is associated with platinum neurotoxicity (Boehmerle, W., et al. Sci. Rep. 4, 6370), would thus cause an increase of the g-ratio).
# [3] = Tissue platinum accumulation by atomic absorption after 8 cycles of oxaliplatin; assay type: in vivo, mouse; settings: buflomedil 80 mg/kg po; 8 cycles OXA; 24 h after last administration
# Method: At the end of 8 cycles of treatment, cold plate test, dynamic test and NCS test were conducted in all mice. Platinum content in DRG, Sciatic nerves and kidney of 3 mice each in the OXA and OXA+BFMD groups, was measured using the method below. The tissue total platinum concentration was determined on frozen sciatic nerve. […] For each tissue, a calibration with control standard tissue was generated. All frozen test samples and standards were treated for a digestion process with a specific HNO3: HCl solution (1:3). The samples obtained after digestion were analyzed by “Atomic Absorption” (Analyst 600 Perkin Elmer, Monza, Italy), and platinum tissue concentration was calculated accordingly.
# [4] = system: male wistar rats treated with cisplatin; test: Cisplatin nephrotoxicity in Wistar rats (Example 9); assay type: in vivo, rat; settings: co-administration with cisplatin 11 mg/kg IV; 72 hrs post treatment; expected
# [5] = cited from earlier work
# HepG2 cells = test: Anti-proliferation study (SRB assay) in HepG2 cells; settings: FIG. 10
# Method: The potency was determined by the sulforhodamine B (SRB) assay in 96-well plates. […] Seeding density was 3000 cells/well for both cell lines.
# [6] = system: Balb/c mice exposed to acute treatment with Oxaliplatin; test: Cold plate test after a single oxaliplatin administration; assay type: in vivo, mouse; settings: 48 hours after single OXA 3.5 mg/kg iv, DTG 4 mg/kg ip 1 hour before
# Method: OXA vehicle, OXA, CPC, DTG, DTG+OXA and CPC+OXA were administered once time. In the group co-administered with OXA and DTG. DTG was injected intraperitoneally 1 hour before the administration of OXA. In the group co-administered with OXA and CPC, CPC was co-administered with OXA intravenously. Mechanical allodynia and cold sensory threshold (dynamic test and cold plate test) were performed 24 and 48 hours after the treatment, respectively, using the methods described in EXAMPLE 15 Plasma Sample Collection
# [7] = 14-week toxicity study in monkey, females, PMDA 2012, cited from earlier work
# [8] = molecular target: T1, OCT2 over OCT3, MATE1 and MATE2K (Homo sapiens, UniProt O15244); test: Inhibition of OCT2-mediated oxaliplatin transport in 100% human serum or HBSS containing 4% BSA (IC50,app); settings: human, MDCK-II cells transfected with human transporters, selectivity between OCT2 and OCT3, MATE1 and MATE2K, oxaliplatin transport
# T1 sequence (O15244 1-555): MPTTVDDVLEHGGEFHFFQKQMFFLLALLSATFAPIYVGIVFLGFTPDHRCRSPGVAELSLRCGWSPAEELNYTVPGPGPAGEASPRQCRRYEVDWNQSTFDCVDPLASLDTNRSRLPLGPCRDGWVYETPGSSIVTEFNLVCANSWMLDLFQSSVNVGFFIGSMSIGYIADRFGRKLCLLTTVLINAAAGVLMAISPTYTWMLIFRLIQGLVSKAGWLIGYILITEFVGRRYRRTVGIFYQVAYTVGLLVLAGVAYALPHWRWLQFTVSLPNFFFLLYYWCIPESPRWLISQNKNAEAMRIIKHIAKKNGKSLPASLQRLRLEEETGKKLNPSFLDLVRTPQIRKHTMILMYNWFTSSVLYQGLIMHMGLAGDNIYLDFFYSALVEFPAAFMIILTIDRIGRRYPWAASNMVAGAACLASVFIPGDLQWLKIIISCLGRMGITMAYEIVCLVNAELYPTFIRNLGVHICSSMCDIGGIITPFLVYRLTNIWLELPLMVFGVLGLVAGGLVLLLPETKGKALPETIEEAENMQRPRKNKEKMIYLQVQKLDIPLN
# Source text: Fully confluent MDCK cell monolayers were transfected with either cDNA plasmids encoding the human transporter to be tested or a GFP control. […] The cells were then washed with ice-cold PBS and lysed with 50:50 acetonitrile:H2O. Intracellular content of the substrate was quantified by LC/MS/MS or a MicroBeta radiometric plate reader.
smiles,measurement,setting,value
"COc1cc(OC)c(C(=O)CCCN2CCCC2)c(OC)c1 [Buflomedil, 4-pyrrolidin-1-yl-1-(2,4,6-trimethoxyphenyl)butan-1-one]",area of DRG neuron cell bodies and nucleoli (morphometry),[1]; listed as BFMD,nearly completely prevented OXA's induced DRG neuronal injury; also recorded: no difference from the CTRL group
same,area of DRG neuron cell bodies and nucleoli (morphometry),[1]; listed as buflomedil,effective on preventing dorsal root ganglion (DRG) nerve cell injury
same,DRG histopathology (light and electron microscopy),"[1]; OXA 3.5 mg/kg iv, 8 cycles ± BFMD 30 mg/kg ip + 15 mg/kg iv",look clearly similar to the control
same,sciatic nerve G-ratio (hypomyelination),[2]; listed as BFMD,reduction in G-ratio of the OXA+BFMD group vs OXA group
same,sciatic nerve G-ratio (hypomyelination),[2]; listed as buflomedil,effective on reducing sciatic nerve damage
same,platinum (oxaliplatin) accumulation in DRG,[3],effective on reducing platinum accumulation in DRG; also recorded: significant decrease in oxaliplatin accumulation in DRG
same,platinum (oxaliplatin) accumulation in kidney,[3],effective on reducing platinum accumulation; also recorded: reduced oxaliplatin accumulation in the kidney
same,platinum (oxaliplatin) accumulation in sciatic nerves,[3],such decrease was not seen in sciatic nerves
same,serum BUN values,[4],lowers the BUN values
same,plasma level associated with serious toxicities,"[5]; European Medicines Agency 2012, Bourguignon 2012",above 10 mg/I and > 32.5 uM
same,MTC (maximum tolerable concentration),[5]; plasma,10 mg/I
same,effect on anti-tumor potency of oxaliplatin in HepG2,HepG2 cells,not buflomedil
C[C@@H]1CCO[C@H]2Cn3cc(C(=O)NCc4ccc(F)cc4F)c(=O)c(O)c3C(=O)N12 [Dolutegravir],"cold allodynia, cold plate",[6],effective on reducing cold hypersensitivity
same,"cold allodynia, cold plate",[6]; listed as DTG,protects the animal from cold allodynia
same,mean plasma Cmax at the NOAEL dose,[7],23500 ng/mL
same,Cmax,[7]; read-out: mean plasma Cmax at the NOAEL dose,54.8 µM
Clc1ccc(COC(Cn2ccnc2)c2ccc(Cl)cc2Cl)c(Cl)c1 (centres unmarked) [Miconazole],selectivity ratio,[8],> 10
